# Measurements: the supplement of paper PMC10307832
# What was measured:
# Test in all cases: relative viability (nuclei count vs DMSO), 5 days (fraction); higher = more cells survive
# [1] = compound: CC1=CC=C(C=C1)C(=O)CN2C3=C(CCCC3)SC2=N [Pifithrin_alpha] + CC1(C)CCC(c2ccc(Cl)cc2)=C(CN2CCN(c3ccc(C(=O)NS(=O)(=O)c4ccc(N[C@H](CCN5CCOCC5)CSc5ccccc5)c(S(=O)(=O)C(F)(F)F)c4)cc3)CC2)C1 [Navitoclax] (partner 0.5 µM)
# Outline: (§1)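 After 5 days of treatment, lung cancer cells in 1536-well plates were fixed and stained in a single step (final 0.05% Triton X-100, 1% formaldehyde, 1 ug/ml Hoechst) and their nuclei counted on 4× images. Treatment had been applied by pin tool the day after seeding as one drug alone or as a fixed anchor-drug dose with five library-drug doses (not always all listed) in √10 steps. Relative viability is the nuclei count of treated wells divided by that of vehicle wells, and values are medians of duplicate plates.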
# Axitinib + Palbociclib = compound: CNC(=O)c1ccccc1Sc1ccc2c(/C=C/c3ccccn3)n[nH]c2c1 [Axitinib] + CC(=O)c1c(C)c2cnc(Nc3ccc(N4CCNCC4)cn3)nc2n(C2CCCC2)c1=O [Palbociclib] (partner 0.5 µM)
# Outline: as §1
# Axitinib + Navitoclax = compound: CNC(=O)c1ccccc1Sc1ccc2c(/C=C/c3ccccn3)n[nH]c2c1 [Axitinib] + CC1(C)CCC(c2ccc(Cl)cc2)=C(CN2CCN(c3ccc(C(=O)NS(=O)(=O)c4ccc(N[C@H](CCN5CCOCC5)CSc5ccccc5)c(S(=O)(=O)C(F)(F)F)c4)cc3)CC2)C1 [Navitoclax] (partner 0.5 µM)
# Outline: as §1
# Bemcentinib + Pemetrexed = compound: Nc1nc(Nc2ccc3c(c2)CC[C@@H](N2CCCC2)CC3)nn1-c1cc2c(nn1)-c1ccccc1CCC2 [Bemcentinib] + Nc1nc2[nH]cc(CCc3ccc(C(=O)N[C@@H](CCC(=O)O)C(=O)O)cc3)c2c(=O)[nH]1 [Pemetrexed] (partner 0.2 µM)
# Outline: as §1
Cell Line,relative viability ([1]; first compound 1 µM),relative viability ([1]; first compound 3.162 µM),relative viability ([1]; first compound 10 µM),relative viability ([1]; first compound 100 µM),relative viability (Axitinib + Palbociclib; first compound 0.005 µM),relative viability (Axitinib + Palbociclib; first compound 0.01581 µM),relative viability (Axitinib + Palbociclib; first compound 0.05 µM),relative viability (Axitinib + Palbociclib; first compound 0.1581 µM),relative viability (Axitinib + Palbociclib; first compound 0.5 µM),relative viability (Axitinib + Navitoclax; first compound 0.005 µM),relative viability (Axitinib + Navitoclax; first compound 0.01581 µM),relative viability (Axitinib + Navitoclax; first compound 0.05 µM),relative viability (Axitinib + Navitoclax; first compound 0.1581 µM),relative viability (Axitinib + Navitoclax; first compound 0.5 µM),relative viability (Bemcentinib + Pemetrexed; first compound 0.04 µM),relative viability (Bemcentinib + Pemetrexed; first compound 0.1265 µM),relative viability (Bemcentinib + Pemetrexed; first compound 0.4 µM),relative viability (Bemcentinib + Pemetrexed; first compound 1.265 µM),relative viability (Bemcentinib + Pemetrexed; first compound 4 µM),relative viability ([1]; first compound 31.62 µM)
NCI-H460,1.41,0.989,0.989,0.933,0.154,0.211,0.143,0.145,0.319,1.12,0.964,1.17,0.984,1.18,0.0651,0.0562,0.0565,0.0602,0.0631,
NCI-H322M,1.17,1.35,1.27,1.33,0.454,0.442,0.491,0.427,0.514,1.18,1.14,1.07,1.08,1.07,0.625,0.633,0.659,0.704,0.618,1.22
HCC-827,1.02,0.917,0.849,0.694,0.511,0.501,0.475,0.491,0.546,0.971,0.959,0.998,1.02,1,0.267,0.267,0.266,0.262,0.286,0.672
HOP-62,0.908,1.09,1.06,1.07,0.469,0.436,0.44,0.45,0.468,1.07,1.06,1.02,1.06,1.12,0.348,0.357,0.385,0.37,0.359,0.751
NCI-H2023,0.914,0.968,0.8,0.822,0.393,0.447,0.363,0.34,0.412,1.05,1.01,0.874,0.94,1.01,0.225,0.287,0.217,0.213,0.198,0.676
NCI-H441,0.652,0.813,0.587,0.831,0.239,0.225,0.222,0.204,0.25,0.521,1,0.727,0.754,0.994,0.24,0.243,0.267,0.245,0.275,0.481
NCI-H2347,0.695,0.87,0.786,0.814,0.42,0.411,0.436,0.434,0.362,0.793,0.857,0.902,0.818,0.934,0.558,0.457,0.428,0.434,0.437,0.551
